This is an account of results in patent US8623871B2, “Substituted biaryl compounds for inflammation and immune-related uses” (Synta Pharmaceuticals Corp., priority 2006, dated 2014).

pIC50: −log10 of the molar value. Structures can show the parent of a compound that is named as a salt.

The subject of this assay is IL-2 production. The experiment in a line: Inhibition of IL-2 production in PHA-activated Jurkat cells (ELISA). It counts as cell-based. To be noted: Homo sapiens, 20 h, PHA 2.5 μg/mL, IL-2 ELISA. How it is done: Jurkat cells were placed in a 96 well plate (0.5 million cells per well in 1% FBS medium) then a test compound of this invention was added at different concentrations. After 10 minutes, the cells were activated with PHA (final concentration 2.5 μg/mL) and incubated for 20 hours at 37° C. under CO2. The final volume was 200 μL. Following incubation, the cells were centrifuged and the supernatants collected and stored at −70° C. prior to assaying for IL-2 production. A commercial ELISA kit (IL-2 Eli-pair, Diaclone Research, Besancon, France) was used to detect production of IL-2, from which dose response curves were obtained. The IC50 value was calculated as the concentration at which 50% of maximum IL-2 production after stimulation was inhibited versus a non-stimulation control.

`Cc1ccc(-c2ncco2)cc1-c1ccc(NC(=O)[C@@H](N)C(C)C)cc1` (stereo in doubt) [Compound 123, 2-Amino-3-methyl-N-(2′-methyl-5′-oxazol-2-yl-biphenyl-4-yl)-butyramide] showed a pIC50 of under 6.30.
For the compound `CC(=O)Nc1ccc(-c2cc(-c3ncco3)ccc2C)cc1` [Compound 1, N-(2′-Methyl-5′-oxazol-2-yl-biphenyl-4-yl)-acetamide], the pIC50 is under 6.30.
As for `CCC(=O)Nc1ccc(-c2cc(-c3ncco3)ccc2C)cc1` [Compound 2, N-(2′-Methyl-5′-oxazol-2-yl-biphenyl-4-yl)-propionamide], the figure is 7.00 to 7.30; as for `CCCC(=O)Nc1ccc(-c2cc(-c3ncco3)ccc2C)cc1` [Compound 3, N-(2′-Methyl-5′-oxazol-2-yl-biphenyl-4-yl)-butyramide], over 7.70.
As for `Cc1ccc(-c2ncco2)cc1-c1ccc(NC(=O)C(C)C)cc1` [Compound 4, N-(2′-Methyl-5′-oxazol-2-yl-biphenyl-4-yl)-isobutyramide], the pIC50 was over 7.70.
Compound `Cc1ccc(-c2ncco2)cc1-c1ccc(NC(=O)C2CC2)cc1` [Compound 5, Cyclopropanecarboxylic acid (2′-methyl-5′-oxazol-2-yl-biphenyl-4-yl)-amide] gave a pIC50 of 7.00 to 7.30.
The compound `Cc1ccc(-c2ncco2)cc1-c1ccc(NC(=O)C2CCC2)cc1` [Compound 6, Cyclobutanecarboxylic acid (2′-methyl-5′-oxazol-2-yl-biphenyl-4-yl)-amide] had a negative-log IC50 (pIC50) of 7.30 to 7.70.
In the case of `Cc1ccc(-c2ncco2)cc1-c1ccc(NC(=O)C2CCCCN2C)cc1` (centres unmarked) [Compound 8, 1-Methyl-piperidine-2-carboxylic acid (2′-methyl-5′-oxazol-2-yl-biphenyl-4-yl)-amide] it was 6.30 to 7.00.
For the compound `CCC(C(=O)Nc1ccc(-c2cc(-c3ncco3)ccc2C)cc1)N(C)C` (centres unmarked) [Compound 9, 2-Dimethylamino-N-(2′-methyl-5′-oxazol-2-yl-biphenyl-4-yl)-butyramide Hydrochloride], the pIC50 is under 6.30.
In the case of `Cc1ccc(-c2ncco2)cc1-c1ccc(NC(=O)C(N)CC(C)C)cc1` (centres unmarked) [Compound 10, 2-Amino-4-methyl-pentanoic acid (2′-methyl-5′-oxazol-2-yl-biphenyl-4-yl)-amide] it was under 6.30; in that of `Cc1ccc(-c2ncco2)cc1-c1ccc(NC(=O)CN)cc1` [Compound 11, 2-Amino-N-(2′-methyl-5′-oxazol-2-yl-biphenyl-4-yl)-acetamide], under 6.00; in that of `Cc1ccc(-c2ncco2)cc1-c1ccc(NC(=O)Cc2ccc(Cl)cc2)cc1` [Compound 35, 2-(4-Chloro-phenyl)-N-(2′-methyl-5′-oxazol-2-yl-biphenyl-4-yl)-acetamide], 6.30 to 7.00.
`Cc1ccc(-c2ncco2)cc1-c1ccc(NC(=O)/C=C/c2ccccc2)cc1` [Compound 48, N-(2′-Methyl-5′-oxazol-2-yl-biphenyl-4-yl)-3-phenyl-acrylamide] gave a negative logarithm of the IC50 (pIC50) of 6.30 to 7.00.
Turning to `Cc1ccc(-c2ncco2)cc1-c1ccc(NC(=O)C2CCCCC2)cc1` [Compound 106, N-(2′-methyl-5′-(oxazol-2-yl)biphenyl-4-yl)cyclohexanecarboxamide], the negative-log IC50 (pIC50) was over 7.70.
The compound `O=C(Nc1ccc(-c2cc(C(F)(F)F)ccc2Cl)cc1)C1CCCCC1` [Compound 107, N-(2′-chloro-5′-(trifluoromethyl)biphenyl-4-yl)cyclohexanecarboxamide] gave a negative-log IC50 (pIC50) of over 7.70.
In the case of `O=C(Nc1ccc(-c2cc(C(F)(F)F)ccc2Cl)cc1)C1CCCC1` [Compound 108, N-(2′-chloro-5′-(trifluoromethyl)biphenyl-4-yl)cyclopentanecarboxamide] it was 7.30 to 7.70; in that of `Cc1ccc(-c2ncco2)cc1-c1ccc(NC(=S)Cc2ccc(F)cc2F)cc1` [Compound 124, 2-(2,4-Difluoro-phenyl)-N-(2′-methyl-5′-oxazol-2-yl-biphenyl-4-yl)-thioacetamide], 7.00 to 7.30.
As for `O=C(Nc1ccc(-c2cc(C(F)(F)F)ccc2Cl)cc1)C1CC1` [Compound 125, N-(2′-chloro-5′-(trifluoromethyl)biphenyl-4-yl)cyclopropanecarboxamide], the figure is 6.30 to 7.00.
`O=C(Nc1ccc(-c2cc(C(F)(F)F)ccc2Cl)cc1)C1CCCN1` (centres unmarked) [Compound 126, N-(2′-chloro-5′-(trifluoromethyl)biphenyl-4-yl)pyrrolidine-2-carboxamide] had a negative-log IC50 (pIC50) of under 6.00.
In the case of `O=C(Nc1ccc(-c2cc(C(F)(F)F)ccc2Cl)cc1)C1CC=CCC1` (centres unmarked) [Compound 127, N-(2′-chloro-5′-(trifluoromethyl)biphenyl-4-yl)cyclohex-3-enecarboxamide] it was 7.00 to 7.30.
In turn, `CC1CCCCC1C(=O)Nc1ccc(-c2cc(C(F)(F)F)ccc2Cl)cc1` (centres unmarked) [Compound 128, N-(2′-chloro-5′-(trifluoromethyl)biphenyl-4-yl)-2-methylcyclohexanecarboxamide] had a pIC50 of 6.30 to 7.00.
As for `O=C(Nc1ccc(-c2cc(C(F)(F)F)ccc2Cl)cc1)C1CCNCC1` [Compound 129, N-(2′-chloro-5′-(trifluoromethyl)biphenyl-4-yl)piperidine-4-carboxamide], the figure is under 6.00; as for `O=C(Nc1ccc(-c2cc(C(F)(F)F)ccc2Cl)cc1)C1CC2CCC1C2` (centres unmarked) [Compound 130, N-(2′-chloro-5′-(trifluoromethyl)biphenyl-4-yl)bicyclo[2.2.1]heptane-2-carboxamide], 6.30 to 7.00.
The compound `O=C(Nc1ccc(-c2cc(C(F)(F)F)ccc2Cl)cc1)C1CC2C=CC1C2` (centres unmarked) [Compound 132, N-(2′-chloro-5′-(trifluoromethyl)biphenyl-4-yl)bicyclo[2.2.1]hept-5-ene-2-carboxamide] had a pIC50 of under 6.30.
As for `CN1CCC(C(=O)Nc2ccc(-c3cc(C(F)(F)F)ccc3Cl)cc2)CC1` [Compound 133, N-(2′-chloro-5′-(trifluoromethyl)biphenyl-4-yl)-1-methylpiperidine-4-carboxamide], the figure is under 6.00; as for `CN1CCCC1C(=O)Nc1ccc(-c2cc(C(F)(F)F)ccc2Cl)cc1` (centres unmarked) [Compound 134, N-(2′-chloro-5′-(trifluoromethyl)biphenyl-4-yl)-1-methylpyrrolidine-2-carboxamide], under 6.00.
Regarding `CCCCNCc1ccc(-c2cc(-c3ncco3)ccc2C)cc1` [Compound 135, N-((2′-methyl-5′-(oxazol-2-yl)biphenyl-4-yl)methyl)butan-1-amine], the pIC50 was under 6.00.
Turning to `C=CCNCc1ccc(-c2cc(-c3ncco3)ccc2C)cc1` [Compound 136, N-((2′-methyl-5′-(oxazol-2-yl)biphenyl-4-yl)methyl)prop-2-en-1-amine], the negative-log IC50 (pIC50) is under 6.00.
Turning to `CCCNCc1ccc(-c2cc(-c3ncco3)ccc2C)cc1` [Compound 137, N-((2′-methyl-5′-(oxazol-2-yl)biphenyl-4-yl)methyl)propan-1-amine], the pIC50 is under 6.00.
Turning to `CCCCNc1ccc(-c2cc3c(cc2C)OCO3)cc1` [Compound 141, N-butyl-4-(6-methylbenzo[d][1,3]dioxol-5-yl)aniline], the pIC50 was 6.30 to 7.00.
`CCCCNc1ccc(-c2cc(C(=O)OC)ccc2C)cc1` [Compound 142, methyl 4′-(butylamino)-6-methylbiphenyl-3-carboxylate] gave a pIC50 of 6.30 to 7.00.
On to `Cc1ccc(-c2ncco2)cc1-c1ccc(NCC(C)C)cc1` [Compound 144, N-isobutyl-2′-methyl-5′-(oxazol-2-yl)biphenyl-4-amine], for which the negative logarithm of the IC50 (pIC50) is 6.30 to 7.00.
On to `Cc1ccc(-c2ncco2)cc1-c1ccc(NCCO)cc1` [Compound 145, 2-(2′-methyl-5′-(oxazol-2-yl)biphenyl-4-ylamino)ethanol], for which the pIC50 is under 6.00.
`Cc1ccc(-c2ncco2)cc1-c1ccc(NC(=O)N2CCN(C)CC2)cc1` [Compound 146, 4-Methyl-piperazine-1-carboxylic acid (2′-methyl-5′-oxazol-2-yl-biphenyl-4-yl)-amide] showed a negative-log IC50 (pIC50) of under 6.00.
As for `CCOC(=O)CNc1ccc(-c2cc(-c3ncco3)ccc2C)cc1` [Compound 147, ethyl 2-(2′-methyl-5′-(oxazol-2-yl)biphenyl-4-ylamino)acetate], the negative logarithm of the IC50 (pIC50) was under 6.00.
